Target: T1, Corticotropin-releasing factor receptor 1 (Homo sapiens, UniProt P34998)
T1 sequence (P34998 whole entry): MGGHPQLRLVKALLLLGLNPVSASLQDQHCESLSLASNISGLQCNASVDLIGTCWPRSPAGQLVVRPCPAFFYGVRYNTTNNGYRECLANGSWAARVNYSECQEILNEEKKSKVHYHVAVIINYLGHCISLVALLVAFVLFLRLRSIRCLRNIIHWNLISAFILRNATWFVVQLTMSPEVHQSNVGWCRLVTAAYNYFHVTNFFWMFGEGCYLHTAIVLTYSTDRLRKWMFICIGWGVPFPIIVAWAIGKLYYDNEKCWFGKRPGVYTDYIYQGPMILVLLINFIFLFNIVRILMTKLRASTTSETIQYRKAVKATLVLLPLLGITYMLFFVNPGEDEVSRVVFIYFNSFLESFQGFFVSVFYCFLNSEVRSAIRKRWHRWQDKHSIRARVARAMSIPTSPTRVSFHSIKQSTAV
Assay: Binding Assay: A binding competition experiment with CRF was conducted by the SPA (GE Healthcare) method using a 96-well plate.

Compound: CCCN(c1c(OC)nn2c(-c3c(OC)cc(Cl)cc3OC)csc12)C1CCOCC1
- IC50: 74 nM
